The results in this text go back to patent publication US10512700B2, “Radiohalide-labeled targeted diagnostics and therapeutics” (Memorial Sloan Kettering Cancer Center, priority 2014, dated 2019).

This data set can be described thus: Stability in whole blood (in vitro). Format: in vitro ADME, mouse. On the procedure: […] […] The sample was centrifuged at 3000 RCF for 3 min at 4° C., and the supernatant collected. This procedure was repeated three times, and the combined supernatants analyzed by HPLC equipped with radioactive detector (Shimadzu, Kyoto, Japan), collecting samples every 30 sec. Radioactivity of each fraction was measured on a Wizard 2470 Automatic Gamma Counter (Perkin Elmer, Waltham, Mass.) and the blood stability was analyzed using Prism 6.0c (GraphPad Software, La Jolla, Calif.).

Molecules are shown by their SMILES.

With `O=C(c1ccc([131I])cc1)N1CCN(C(=O)c2cc(Cc3n[nH]c(=O)c4ccccc34)ccc2F)CC1` [C-2d (^131I)], the “in vitro blood stability” value is “confirmed the stability of the compound” (mouse blood, 37° C., over 60 min) and “confirmed the stability of the compound” (over the course of 120 minutes).
